# Measurements as given in PubChem BioAssay (NCI).
#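 Cultured in 96-well plates, cells were exposed to test compound for 48 hours across five concentrations. GI50 is the concentration that inhibits growth by half. TGI: concentration producing complete growth inhibition.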
# Columns and labels:
# Experiment in all cases: NCI-60 cell line screen, 48 h
# HOP-92 NSCLC = system: HOP-92 NSCLC
# CCRF-CEM leukemia = system: CCRF-CEM leukemia
# SF-539 CNS = system: SF-539 CNS
# OVCAR-3 ovarian = system: OVCAR-3 ovarian
# NCI-H460 lung = system: NCI-H460 lung
# A549 NSCLC = system: A549 NSCLC
# RPMI-8226 leukemia = system: RPMI-8226 leukemia
# HL-60(TB) leukemia = system: HL-60(TB) leukemia
# MOLT-4 leukemia = system: MOLT-4 leukemia
# T-47D breast = system: T-47D breast
Compound,GI50 (HOP-92 NSCLC),TGI (HOP-92 NSCLC),GI50 (CCRF-CEM leukemia),TGI (CCRF-CEM leukemia),GI50 (SF-539 CNS),TGI (SF-539 CNS),GI50 (OVCAR-3 ovarian),TGI (OVCAR-3 ovarian),GI50 (NCI-H460 lung),TGI (NCI-H460 lung),GI50 (A549 NSCLC),TGI (A549 NSCLC),GI50 (RPMI-8226 leukemia),TGI (RPMI-8226 leukemia),GI50 (HL-60(TB) leukemia),TGI (HL-60(TB) leukemia),TGI (MOLT-4 leukemia),GI50 (T-47D breast),TGI (T-47D breast),GI50 (MOLT-4 leukemia)
C=C1C(=O)O[C@H]2[C@H]1CC/C(COC(=O)CCCCC(=O)OC/C1=C/CC[C@@]3(C)O[C@H]3[C@H]3OC(=O)C(=C)[C@@H]3CC1)=C\CC[C@@]1(C)O[C@@H]21,1.64 µM,4.56 µM,0.429 µM,4.25 µM,2.01 µM,4.96 µM,0.84 µM,2.14 µM,3.52 µM,25.5 µM,58.2 µM,> 100 µM,1.81 µM,5.59 µM,0.722 µM,3.94 µM,–,–,–,–
COC(=O)/C=C1/CCC2[C@@H](C(=O)CC3[C@]2(C)CCC[C@@]3(C)C(=O)OC)C1C (some centres undefined),–,18.1 µM,–,17.6 µM,–,28.5 µM,–,20.4 µM,–,51.7 µM,–,37.7 µM,–,14.4 µM,–,7.81 µM,19.1 µM,–,–,–
C[n+]1c(/C=C\c2ccc(Cl)cc2)ccc2ccccc21,–,–,32.4 µM,> 100 µM,15.9 µM,92.2 µM,7.34 µM,31.4 µM,32.7 µM,> 100 µM,1.04 µM,> 100 µM,14.4 µM,> 100 µM,24.2 µM,> 100 µM,> 100 µM,21.8 µM,> 100 µM,> 100 µM
Cn1c2ccccc2c(=S)c2ccccc21,–,> 100 µM,–,> 100 µM,–,> 100 µM,–,> 100 µM,–,> 100 µM,–,> 100 µM,–,> 100 µM,–,–,> 100 µM,–,> 100 µM,–
CN(C)CCNC(=O)c1cc2ccccc2c2nc3ccccc3nc12,–,–,–,–,–,1.55 µM,–,6.35 µM,–,–,–,> 44.4 µM,–,3.42 µM,–,–,0.487 µM,–,–,–
CS(=O)(=O)NNS(=O)(=O)c1cccc([N+](=O)[O-])c1,–,–,–,> 100 µM,–,> 100 µM,–,–,–,> 100 µM,–,> 100 µM,–,> 100 µM,–,> 100 µM,> 100 µM,–,–,–
COc1ccc2nc(-c3cc(-c4cc(OC)c(OC)c(OC)c4)n[nH]3)[nH]c2c1,–,–,1.29 µM,4.12 µM,2.42 µM,9.71 µM,2.05 µM,6.18 µM,2.64 µM,8.08 µM,1.63 µM,5.25 µM,0.643 µM,2.53 µM,1.69 µM,4.81 µM,3.27 µM,0.346 µM,1.92 µM,0.738 µM
Cc1ccc(NC(=O)C(=O)C2C(=O)N(c3ccccc3)N=C2N)cc1C (centres undefined),–,> 100 µM,–,> 100 µM,–,> 100 µM,–,> 100 µM,–,–,–,> 100 µM,–,> 100 µM,–,> 100 µM,> 100 µM,–,–,–
CC(=O)OC(/C=C1/C=CC(=O)O1)COC(=O)c1ccccc1 (centres undefined),–,> 31.2 µM,–,> 31.2 µM,–,> 31.2 µM,–,> 31.2 µM,–,> 31.2 µM,–,> 31.2 µM,–,> 31.2 µM,–,> 31.2 µM,–,–,–,–
CCOC(=O)/C(O)=C(/c1n[nH]c(=O)c2ccccc12)[N+](=O)[O-],–,> 100 µM,–,> 100 µM,–,> 100 µM,–,> 100 µM,–,> 100 µM,–,> 100 µM,–,> 100 µM,–,> 100 µM,> 100 µM,–,–,–
O=c1cccccc1NCCOCCNc1cccccc1=O,–,–,–,> 100 µM,–,–,–,> 100 µM,–,> 100 µM,–,> 100 µM,–,> 100 µM,–,> 100 µM,> 100 µM,–,–,–
Cc1ccc(NC(=O)CCC(CC(=O)C(C)(C)C)=NNC(=O)C(=O)NN)cc1C,–,–,–,> 100 µM,–,> 100 µM,–,> 100 µM,–,> 100 µM,–,> 100 µM,–,> 100 µM,–,> 100 µM,> 100 µM,–,–,–
CCOC12OC3=C(CC1CC1=C(CCC1=O)O2)C(=O)CC3 (centres undefined),–,> 100 µM,–,> 100 µM,–,> 100 µM,–,> 100 µM,–,> 100 µM,–,> 100 µM,–,> 100 µM,–,> 100 µM,> 100 µM,–,–,–
Cc1cc(NS(=O)(=O)c2ccc(N=Nc3cc(N=Nc4ccc(S(=O)(=O)Nc5cc(C)nc(C)n5)cc4)c4c(NC(=O)C(Cl)Cl)cccc4c3OC(=O)C(Cl)Cl)cc2)nc(C)n1 (tested in a mixture with another compound),–,59.2 µM,–,–,–,42.8 µM,–,33 µM,–,> 100 µM,–,> 100 µM,–,–,–,52.4 µM,> 100 µM,–,–,–
O=S(=O)(O)O.[NH-]C1CCCCC1[NH-].[Pt+2] (centres undefined),56.7 µM,> 100 µM,17.6 µM,> 100 µM,> 100 µM,> 100 µM,> 100 µM,> 100 µM,41 µM,> 100 µM,80.4 µM,> 100 µM,48.6 µM,> 100 µM,19.3 µM,> 100 µM,> 100 µM,–,–,8.95 µM
COc1ccc(-c2[nH]c3ccccc3c2C=C(C#N)C#N)cc1,1.21 µM,> 100 µM,0.352 µM,10.3 µM,0.262 µM,0.795 µM,0.263 µM,0.713 µM,0.368 µM,> 100 µM,0.694 µM,> 100 µM,–,–,0.271 µM,0.714 µM,5.53 µM,0.481 µM,> 100 µM,0.578 µM
Oc1ccccc1-c1nn(CNc2cccc(Cl)c2)c(=S)o1,1.86 µM,31.7 µM,3.63 µM,27.3 µM,27.6 µM,> 100 µM,30.4 µM,> 100 µM,20.6 µM,> 100 µM,74.8 µM,> 100 µM,15.3 µM,38.5 µM,–,–,> 100 µM,28.7 µM,> 100 µM,–
CC(=O)N1c2ccccc2C23CCN(C)CC4C(C)OCC(C4CC2=O)C13 (centres undefined),–,> 100 µM,–,> 100 µM,–,> 100 µM,–,–,–,> 100 µM,–,> 100 µM,–,–,–,> 100 µM,> 100 µM,–,> 100 µM,–
